{"source": "patent US20060018833A1", "about": "“Method and system for screening compounds for muscular and/or neurological activity in animals” (priority 2004, published 2006)", "key": {"Medaka fish": {"tested_on": "Medaka fish", "assay": "Chemically (PTZ) induced seizure activity in Medaka fish, anticonvulsant screen (FIG. 5)", "assay_type": "in vivo", "description": "One embodiment of the screen for anticonvulsant activity in the presence of a chemical stimulus includess placing a single or plurality of adult (1 month) fish into each well of a 12 well plate. This well contains 4 ml of pure tank water with a defined pH (7.0 can be between 6-8), hardness (90 ppm). The test compounds are then applied to the wells in 12 concentrations ranging from 10 μM to 10 mM. The compounds are diluted from standard DMSO stock solutions stored in other multiwell plates. Test compounds are added as either tank water diluted solutions or as DMSO concentrates. […] The compounds are added to wells after the optical clarity (transmittance) of the well water is determined. Following addition of the compounds to the wells a second transmittance measure is made to determine if the compound has dropped out of solution at any of the concentrations. […] Highly insoluble compounds are solublized in cyclodextrins or mixed with wet fish food, dried and applied at a known amount to wells containing a fish that was not fed for a day.\nPlates containing soluble compounds are covered with plastic tops from the manufacturer and placed in an incubator set around 27 degrees centigrade and an oxygen rich atmosphere. […] Fish are examined by the operator for deaths and they are scored as such.\nTesting is performed in a visible light darkened, sound dampened room upon a highly diffused infrared light box. […] Excess or erratic activity is automatically determined by a computer algorhythim during a 20 minute control period. […]\nThe image sequence collected following the administration is examined by a computer program which determines a number of factors about the activity of the fish including orientation, location, distance traveled, and cross sectional area of the fish's silhouette. […] Activity levels reaching specific thresholds and the type of activity (circular swimming and erratic darting) are scored along with periods of quiescence. […] The latency to first seizure and the magnitude and frequency of seizures are scored for each well. […]"}, "teleosts": {"tested_on": "teleosts", "assay": "Electrically induced seizures in teleost fish, blocking by anticonvulsants", "assay_type": "in vivo, teleost (Medaka)", "conditions": "compound in the water, \"(10-80 μM)\" printed after phenytoin", "description": "Consistent electrical-induced seizures are achieved by optimizing both maximum voltage achieved, overall power delivered during relatively constant current. Electrodes are placed in the wells from above just prior to commencement of the test.\nConvulsions are produced by the placing a circular array of 6 stainless steal wire electrodes (around 100 μm in outside diameter) around the perimeter of a single well in a 48 well plate. The electrodes are insulated to the tips on the side of the electrodes that face the inside of the well. In this way the fish is less likely to contact the metal of the electrode that faces the well wall. A seizure is evoked by the application of a constant duration pulse of a constant current sine wave oscillating voltage field. The amount of current applied depends on the electrical impedance of the arrangement. In general around 30 mA of current at around 70 RMS volts is sufficient to produce a reliable seizure in a 2-3 week old Medaka fish. During the pulse the output is randomly scrambled to opposing pairs of the six electrodes via a high voltage MUX circuit. The electronics to produce the above stimulation are apparent to person skilled at the art.\nThe application of sufficient electrical current to the water containing a fish will evoke a behavioral response. However, at a specific range of current/voltage settings (30-110 V; 20 mA-0.1 mA) an animal will have a seizure, experience a post-ictal period of quiescence and recover. […] Application of a battery of classic anticonvulsants known to block seizure generation in animals will block the expression of seizures in teleost."}, "Medaka": {"tested_on": "Medaka", "assay": "Determining convulsive dose of convulsant added to well water (Medaka)", "assay_type": "in vivo", "conditions": "20 mM PTZ solution added at 0.1 ml per minute to 5 ml tank water", "description": "(§1) To establish the minimum seizure threshold dose (CD50) for convulsant agents 5 ml of tank water is placed a single well of a 12-well plate. A single juvenile teleost is placed in the well and allowed to acclimate for a period of time in a darkened room. When the animal has acclimated to the new conditions, a solution containing convulsant (e.g. a 20 mM solution of pentylenetetrazol (PTZ) in tank water) is added to the well at a rate of 0.1 ml per minute. The amount of solution being added is constant. The behavior of the fish is then monitored continuously during the rest period beginning with the addition of the convulsant. At the point which the animal has a convulsion the addition is stopped and the animal removed. […] This dose is considered the convulsive dose (>97%) for teleost."}, "zebrafish": {"tested_on": "zebrafish", "assay": "Determining convulsive dose of convulsant added to well water (zebrafish)", "assay_type": "in vivo", "description": "as §1, with “A single juvenile teleost is placed in the well and allowed to acclimate for a period of time in a darkened room.” left out"}}, "data": [{"smiles": "CCCC(CCC)C(=O)O", "note": "[Valproate, valproic acid]", "values": [{"measurement": "seizure in well with convulsant and anticonvulsant", "setting": "Medaka fish; FIG. 5 lower right well, 6 mM PTZ and Valproate 5 mM", "result": "Only the fish in the lower left well has seizure"}, {"measurement": "seizure in well with anticonvulsant only", "setting": "Medaka fish; FIG. 5 upper right well, only valproate 5 mM, no convulsant", "result": "Only the fish in the lower left well has seizure"}]}, {"smiles": "NC(=O)OCC(COC(N)=O)c1ccccc1", "note": "[felbamate]", "values": [{"measurement": "blocking seizure specific behavioral movements following electrical stimulation", "setting": "teleosts", "result": "capable of blocking seizure specific behavioral movements"}]}, {"smiles": "O=C1NC(=O)C(c2ccccc2)(c2ccccc2)N1", "note": "[phenytoin]", "values": [{"measurement": "blocking seizure specific behavioral movements following electrical stimulation", "setting": "teleosts", "result": "capable of blocking seizure specific behavioral movements"}]}, {"smiles": "C1CCc2nnnn2CC1", "note": "[PTZ, pentylenetetrazol]", "values": [{"measurement": "seizure in well with convulsant only", "setting": "Medaka fish; FIG. 5 lower left well, 6 mM PTZ", "result": "has seizure"}, {"measurement": "terminal concentration at which the animal has a convulsion (minimum seizure threshold dose, CD50)", "setting": "Medaka", "result": 10, "unit": "mM"}, {"measurement": "seizure evoked, share of fish", "setting": "zebrafish; adult zebrafish immersed in 5 mM PTZ, within 30 minutes of addition, 10 fish", "result": 100, "unit": "%"}, {"measurement": "terminal concentration at which the animal has a convulsion (minimum seizure threshold dose, CD50)", "setting": "zebrafish; zebrafish, 20 mM PTZ solution added at 0.1 ml per minute to 5 ml tank water", "result": "around 6 mM"}]}, {"smiles": "NCC1(CC(=O)O)CCCCC1", "note": "[gabapentin]", "values": [{"measurement": "blocking seizure specific behavioral movements following electrical stimulation", "setting": "teleosts", "result": "capable of blocking seizure specific behavioral movements"}]}, {"smiles": "NC(=O)N1c2ccccc2C=Cc2ccccc21", "note": "[Carbamazepine]", "values": [{"measurement": "blocking seizure specific behavioral movements following electrical stimulation", "setting": "teleosts", "result": "capable of blocking seizure specific behavioral movements"}]}]}
